This note sets out measurements from the supplement of paper PMC11208160.
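Note: IS621 bridge recombinase in Escherichia coli cells against a fixed T5 target plasmid.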

The nature of the series: recombinant UMI read abundance after kanamycin selection (control-corrected) (log10(CPM+1)); higher = more efficient recombination; extreme values may be limits of the assay; sequences stand for … in AGTGCAGAGAAAATCGGCCAGTTTTCTCTGCCTGCAGTCCGCATGCCGTGGGACCCCTTGGGTTCTAACCTGTTGCCTAGATTTATGCAGCGGACTGCCTTTCTCCCAAAGTGATAAACCGG…AGGTTGGTTTCACT; site = the 11-nt donor. Summed up:
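Reported values are log10(CPM+1) from a pooled Escherichia coli screen of donor and donor-binding-loop pairs for the IS621 bridge recombinase. Selection used IPTG (0.07 mM) plus kanamycin, against unselected plating, each in two replicates. Recombinant UMIs were amplified across the donor–target junction, sequenced, converted to CPM, averaged over replicates and scaled by control-derived factors.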
“CCGGGTGCATGGACCGGTTTTCCCGGTAATCCGTATTTGAT (site CCTGGTGCTAT)”: the “recombinant UMI read abundance (log10)” value was 0.428.
Under “CCGGGTTCATGGACCGGTTTTCCCGGTAATCCGTATTTGGC (site CCGGGTTCTGC)” stands 1.57; under “CCGTCAACATGGACCGGTTTTCCCGGTAATCCGTATTTGCT (site CCGTCAACTAG)”, 0; under “CCGTCGCCATGGACCGGTTTTCCCGGTAATCCGTATTTGTC (site CCGTCGCCTGA)”, 0.
For “CCGTTACCATGGACCGGTTTTCCCGGTAATCCGTATTTGAG (site CCGTTACCTCT)”, the “recombinant UMI read abundance (log10)” value was determined as 0.0156.
Take “CCGTTAGCATGGACCGGTTTTCCCGGTAATCCGTATTTGAG (site CCGTTAGCTCA)”: the “recombinant UMI read abundance (log10)” value came out at 0.0714.
Under “CCGTTAGCATGGACCGGTTTTCCCGGTAATCCGTATTTGAG (site CCGTTAGCTCC)” stands 0.006.
Consider “CCGTTAGCATGGACCGGTTTTCCCGGTAATCCGTATTTGAG (site CCGTTAGCTCG)”, for which the “recombinant UMI read abundance (log10)” value came out at 0.00749.
Take “CCGTTAGCATGGACCGGTTTTCCCGGTAATCCGTATTTGAG (site CCGTTAGCTCT)”: the “recombinant UMI read abundance (log10)” value is 0.692.
Consider “CCGTTCGCATGGACCGGTTTTCCCGGTAATCCGTATTTGTG (site CCGTTAGCTCA)”, for which the “recombinant UMI read abundance (log10)” value came to 0.00765.
In the case of “CCGTTCGCATGGACCGGTTTTCCCGGTAATCCGTATTTGTG (site CCGTTCGCTCA)”, the “recombinant UMI read abundance (log10)” value worked out at 0.0261.
Next, “CCGTTCGCATGGACCGGTTTTCCCGGTAATCCGTATTTGTG (site CCGTTGGCTCA)”: 0.0144; “CCGTTCGCATGGACCGGTTTTCCCGGTAATCCGTATTTGTG (site CCGTTTGCTCA)”: 0.00651.
For “CCGTTGGCATGGACCGGTTTTCCCGGTAATCCGTATTTGTG (site CCGTTAGCTCA)”, the “recombinant UMI read abundance (log10)” value worked out at 0.661.
Consider “CCGTTGGCATGGACCGGTTTTCCCGGTAATCCGTATTTGTG (site CCGTTCGCTCA)”, for which the “recombinant UMI read abundance (log10)” value is 0.0171.
With “CCGTTGGCATGGACCGGTTTTCCCGGTAATCCGTATTTGTG (site CCGTTGGCTCA)”, the “recombinant UMI read abundance (log10)” value came to 0.286.
On to “CCGTTGGCATGGACCGGTTTTCCCGGTAATCCGTATTTGTG (site CCGTTTGCTCA)”, for which the “recombinant UMI read abundance (log10)” value was 0.00375.
As to “CCGTTGTCATGGACCGGTTTTCCCGGTAATCCGTATTTGTC (site CCGTTGTCTGA)”, the “recombinant UMI read abundance (log10)” value was 0.
Turning to “CCGTTTACATGGACCGGTTTTCCCGGTAATCCGTATTTGAT (site CCGTTTACTAA)”, the “recombinant UMI read abundance (log10)” value was 0.0556.
With “CCGTTTACATGGACCGGTTTTCCCGGTAATCCGTATTTGAT (site CCGTTTACTAC)”, the “recombinant UMI read abundance (log10)” value amounted to 0.
With “CCGTTTACATGGACCGGTTTTCCCGGTAATCCGTATTTGAT (site CCGTTTACTAG)”, the “recombinant UMI read abundance (log10)” value came to 0.
In the case of “CCGTTTACATGGACCGGTTTTCCCGGTAATCCGTATTTGAT (site CCGTTTACTAT)”, the “recombinant UMI read abundance (log10)” value amounted to 0.
“CCTAAAGCATGGACCGGTTTTCCCGGTAATCCGTATTTGAA (site CCTAAAGCTAT)”: the “recombinant UMI read abundance (log10)” value turned out to be 0.
For the sequence “CCTAAAGCATGGACCGGTTTTCCCGGTAATCCGTATTTGAA (site CCTAAAGCTCT)”, the “recombinant UMI read abundance (log10)” value is 0.00343.
Turning to “CCTAAAGCATGGACCGGTTTTCCCGGTAATCCGTATTTGAA (site CCTAAAGCTGT)”, the “recombinant UMI read abundance (log10)” value was 0.
For the sequence “CCTAAAGCATGGACCGGTTTTCCCGGTAATCCGTATTTGAA (site CCTAAAGCTTT)”, the “recombinant UMI read abundance (log10)” value was determined as 0.699.
As to “CCTAAAGCATGGACCGGTTTTCCCGGTAATCCGTATTTGTT (site CCTAAAGCTAA)”, the “recombinant UMI read abundance (log10)” value turned out to be 0.0032.
Take “CCTAAAGCATGGACCGGTTTTCCCGGTAATCCGTATTTGTT (site CCTAAAGCTAC)”: the “recombinant UMI read abundance (log10)” value came to 0.
“CCTAAAGCATGGACCGGTTTTCCCGGTAATCCGTATTTGTT (site CCTAAAGCTAG)”: the “recombinant UMI read abundance (log10)” value worked out at 0.
Under “CCTAAAGCATGGACCGGTTTTCCCGGTAATCCGTATTTGTT (site CCTAAAGCTAT)” stands 0.00347.
In the case of “CCTAACACATGGACCGGTTTTCCCGGTAATCCGTATTTGGC (site CCTAAAACTGC)”, the “recombinant UMI read abundance (log10)” value was found to be 0.
As for “CCTAACACATGGACCGGTTTTCCCGGTAATCCGTATTTGGC (site CCTAACACTGC)”, the “recombinant UMI read abundance (log10)” value amounted to 0.
Turning to “CCTAACACATGGACCGGTTTTCCCGGTAATCCGTATTTGGC (site CCTAAGACTGC)”, the “recombinant UMI read abundance (log10)” value was found to be 0.
Next, “CCTAACACATGGACCGGTTTTCCCGGTAATCCGTATTTGGC (site CCTAATACTGC)”: 0; “CCTAACGCATGGACCGGTTTTCCCGGTAATCCGTATTTGAT (site CCTAAAGCTAT)”: 0; “CCTAACGCATGGACCGGTTTTCCCGGTAATCCGTATTTGAT (site CCTAACGCTAT)”: 0.
Under “CCTAACGCATGGACCGGTTTTCCCGGTAATCCGTATTTGAT (site CCTAAGGCTAT)” stands 0; under “CCTAACGCATGGACCGGTTTTCCCGGTAATCCGTATTTGAT (site CCTAATGCTAT)”, 0; under “CCTAATCCATGGACCGGTTTTCCCGGTAATCCGTATTTGGC (site CCTAATACTGC)”, 0.
Take “CCTAATCCATGGACCGGTTTTCCCGGTAATCCGTATTTGGC (site CCTAATCCTGC)”: the “recombinant UMI read abundance (log10)” value was 0.
With “CCTAATCCATGGACCGGTTTTCCCGGTAATCCGTATTTGGC (site CCTAATGCTGC)”, the “recombinant UMI read abundance (log10)” value stood at 0.
Under “CCTAATCCATGGACCGGTTTTCCCGGTAATCCGTATTTGGC (site CCTAATTCTGC)” stands 0; under “CCTACAACATGGACCGGTTTTCCCGGTAATCCGTATTTGAA (site CCTACAACTTT)”, 0.0165; under “CCTACTACATGGACCGGTTTTCCCGGTAATCCGTATTTGGC (site CCTAATACTGC)”, 0.
With “CCTACTACATGGACCGGTTTTCCCGGTAATCCGTATTTGGC (site CCTACTACTGC)”, the “recombinant UMI read abundance (log10)” value worked out at 0.
On to “CCTACTACATGGACCGGTTTTCCCGGTAATCCGTATTTGGC (site CCTAGTACTGC)”, for which the “recombinant UMI read abundance (log10)” value is 0.
Under “CCTACTACATGGACCGGTTTTCCCGGTAATCCGTATTTGGC (site CCTATTACTGC)” stands 0; under “CCTACTTCATGGACCGGTTTTCCCGGTAATCCGTATTTGAT (site CCTACTTCTAT)”, 0; under “CCTATACCATGGACCGGTTTTCCCGGTAATCCGTATTTGCG (site CCTATACCTCG)”, 0.0152.
Turning to “CCTATAGCATGGACCGGTTTTCCCGGTAATCCGTATTTGAT (site CCTAAAGCTAT)”, the “recombinant UMI read abundance (log10)” value stood at 0.
Under “CCTATAGCATGGACCGGTTTTCCCGGTAATCCGTATTTGAT (site CCTACAGCTAT)” stands 0.
Next, “CCTATAGCATGGACCGGTTTTCCCGGTAATCCGTATTTGAT (site CCTAGAGCTAT)”: 0.0174.
On to “CCTATAGCATGGACCGGTTTTCCCGGTAATCCGTATTTGAT (site CCTATAGCTAT)”, for which the “recombinant UMI read abundance (log10)” value amounted to 0.00747.
With “CCTATTACATGGACCGGTTTTCCCGGTAATCCGTATTTGGC (site CCTAATACTGC)”, the “recombinant UMI read abundance (log10)” value worked out at 0.
Consider “CCTATTACATGGACCGGTTTTCCCGGTAATCCGTATTTGGC (site CCTACTACTGC)”, for which the “recombinant UMI read abundance (log10)” value amounted to 0.
For “CCTATTACATGGACCGGTTTTCCCGGTAATCCGTATTTGGC (site CCTAGTACTGC)”, the “recombinant UMI read abundance (log10)” value was determined as 0.
Under “CCTATTACATGGACCGGTTTTCCCGGTAATCCGTATTTGGC (site CCTATTACTGC)” stands 0; under “CCTATTTCATGGACCGGTTTTCCCGGTAATCCGTATTTGGC (site CCTATTTCTGC)”, 0.
As for “CCTATTTCATGGACCGGTTTTCCCGGTAATCCGTATTTGTC (site CCTATTTCTGA)”, the “recombinant UMI read abundance (log10)” value was 0.
Next, “CCTCCAACATGGACCGGTTTTCCCGGTAATCCGTATTTGTA (site CCTCCAACTTA)”: 0.0158.
As for “CCTCGGACATGGACCGGTTTTCCCGGTAATCCGTATTTGGG (site CCTCGGACTCC)”, the “recombinant UMI read abundance (log10)” value was determined as 0.0416.
Next, “CCTCTAGCATGGACCGGTTTTCCCGGTAATCCGTATTTGTA (site CCTCTAGCTTA)”: 0.352; “CCTGAGACATGGACCGGTTTTCCCGGTAATCCGTATTTGAG (site CCTGAGACTCT)”: 0.00693; “CCTGGAACATGGACCGGTTTTCCCGGTAATCCGTATTTGTT (site CATGGAACTAA)”: 0.0113.
Next, “CCTGGAACATGGACCGGTTTTCCCGGTAATCCGTATTTGTT (site CCTGGAACTAA)”: 0.00583; “CCTGGAACATGGACCGGTTTTCCCGGTAATCCGTATTTGTT (site CGTGGAACTAA)”: 0.00754.
On to “CCTGGAACATGGACCGGTTTTCCCGGTAATCCGTATTTGTT (site CTTGGAACTAA)”, for which the “recombinant UMI read abundance (log10)” value was determined as 0.00851.
In the case of “CCTGGTGCATGGACCGGTTTTCCCGGTAATCCGTATTTGAT (site CCAGGTGCTAT)”, the “recombinant UMI read abundance (log10)” value was 0.00887.
